Reference: patent US8993608B2, “Method for inhibiting topoisomerase II” (Synta Pharmaceuticals Corp., priority 2007, dated 2015)

Assays:
Her2 = assay: Degradation of Her2 in BT-474 cells after treatment (Method 1, SDS-PAGE/immunoblot); format: cell-based, Human; conditions: overnight
Method: Human high-Her2 breast carcinoma BT474 (HTB-20), SK-BR-3 (HTB-30) and MCF-7 breast carcinoma (HTB-22) from American Type Culture Collection, Va., USA were grown in Dulbecco's modified Eagle's medium with 4 mM L-glutamine and antibiotics (100 IU/ml penicillin and 100 ug/ml streptomycine;GibcoBRL). To obtain exponential cell growth, cells were trypsinized, counted and seeded at a cell density of 0.5×10^6 cells /ml regularly, every 3 days. All experiments were performed on day 1 after cell passage.
BT-474 cells were treated with 0.5 μM, 2 μM, or 5 μM of 17AAG (a positive control) or 0.5 μM, 2 μM, or 5 μM of Compound 108 or Compound 49 overnight in DMEM medium. After treatment, each cytoplasmic sample was prepared from 1×10^6 cells by incubation of cell lysis buffer (#9803, cell Signaling Technology) on ice for 10 minutes. The resulting supernatant used as the cytosol fractions were dissolved with sample buffer for SDS-PAGE and run on a SDS-PAGE gel, blotted onto a nitrocellulose membrane by using semi-dry transfer. Non-specific binding to nitrocellulose was blocked with 5% skim milk in TBS with 0.5% Tween at roomtemperature for 1 hour, then probed with anti-Her2/ErB2 mAb (rabbit IgG, #2242, Cell Signaling) and anti-Tubulin (T9026, Sigma) as housekeeping control protein. HRP-conjugated goat anti-rabbit IgG (H+L) and HRP-conjugated horse anti-mouse IgG (H+L) were used as secondary Ab (#7074, #7076, Cell Signaling) and LumiGLO reagent, 20× Peroxide (#7003, Cell Signaling) was used for visualization.

Hsp90 protein = assay: Malachite Green Assay of ATPase activity of Hsp90 protein; format: biochemical
Method: Hsp90 protein was obtained from Stressgen (Cat#SPP-770). Assay buffer: 100 mM Tris-HCl, Ph7.4, 20 mM KCl, 6 mM MgCl2. […] Malachite green reagent was added to the reaction. […] The plate was read by an ELISA reader with an absorbance at 620 nm.

human topo II = human topo II (Homo sapiens, UniProt P11388); conditions: Gadelle et al., Biochemical Pharmacology (2006); cited from earlier work
Chain of human topo II (P11388 whole entry): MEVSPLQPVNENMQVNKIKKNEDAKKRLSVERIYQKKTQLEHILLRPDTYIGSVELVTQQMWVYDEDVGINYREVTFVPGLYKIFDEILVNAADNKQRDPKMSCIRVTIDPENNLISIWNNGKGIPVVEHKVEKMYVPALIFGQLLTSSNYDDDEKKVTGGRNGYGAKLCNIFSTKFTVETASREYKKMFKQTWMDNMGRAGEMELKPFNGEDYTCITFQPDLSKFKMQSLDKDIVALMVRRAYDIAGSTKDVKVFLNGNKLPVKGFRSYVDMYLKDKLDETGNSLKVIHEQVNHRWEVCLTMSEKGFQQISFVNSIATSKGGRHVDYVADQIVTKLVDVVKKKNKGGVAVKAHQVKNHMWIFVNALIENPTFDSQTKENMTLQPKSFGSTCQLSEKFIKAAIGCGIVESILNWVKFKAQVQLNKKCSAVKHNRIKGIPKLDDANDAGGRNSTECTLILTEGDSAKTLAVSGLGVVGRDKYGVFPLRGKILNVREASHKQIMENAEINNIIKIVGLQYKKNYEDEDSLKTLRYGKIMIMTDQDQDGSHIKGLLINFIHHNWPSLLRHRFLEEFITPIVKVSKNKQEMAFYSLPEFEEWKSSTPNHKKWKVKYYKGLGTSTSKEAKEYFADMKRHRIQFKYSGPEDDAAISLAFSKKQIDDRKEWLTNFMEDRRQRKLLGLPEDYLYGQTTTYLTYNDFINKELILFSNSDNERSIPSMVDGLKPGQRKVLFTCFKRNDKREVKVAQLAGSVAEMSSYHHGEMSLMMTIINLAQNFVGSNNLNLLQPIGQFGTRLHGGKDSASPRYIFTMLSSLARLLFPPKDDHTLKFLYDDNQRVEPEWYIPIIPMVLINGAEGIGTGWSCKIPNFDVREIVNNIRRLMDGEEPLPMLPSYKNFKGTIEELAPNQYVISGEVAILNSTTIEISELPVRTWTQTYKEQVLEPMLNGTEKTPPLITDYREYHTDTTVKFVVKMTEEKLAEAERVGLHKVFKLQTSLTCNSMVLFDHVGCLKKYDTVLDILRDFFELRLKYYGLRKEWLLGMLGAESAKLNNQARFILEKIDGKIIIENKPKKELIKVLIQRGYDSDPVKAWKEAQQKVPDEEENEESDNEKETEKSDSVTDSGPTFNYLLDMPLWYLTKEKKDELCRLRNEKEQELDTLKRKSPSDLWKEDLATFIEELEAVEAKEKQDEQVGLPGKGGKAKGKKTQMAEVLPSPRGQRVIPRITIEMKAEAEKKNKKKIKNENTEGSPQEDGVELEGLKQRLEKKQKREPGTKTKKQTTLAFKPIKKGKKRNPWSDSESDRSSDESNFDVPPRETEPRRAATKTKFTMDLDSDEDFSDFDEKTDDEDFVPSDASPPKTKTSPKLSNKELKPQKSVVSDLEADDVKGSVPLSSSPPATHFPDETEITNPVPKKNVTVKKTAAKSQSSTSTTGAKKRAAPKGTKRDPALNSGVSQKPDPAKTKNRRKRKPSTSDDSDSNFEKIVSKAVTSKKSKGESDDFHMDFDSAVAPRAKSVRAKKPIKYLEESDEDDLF

topoisomerase II = molecular target: T1, topoisomerase II (Homo sapiens, UniProt P11388); assay: kDNA decatenation assay for inhibition of topoisomerase II; format: biochemical; conditions: 200 nM, lane 8 of FIG. 3
T1 construct: purchased TopoGEN, Inc
T1 sequence (P11388 whole entry): as above
Method: The ability of compounds of the invention to inhibit the activity of topoisomerase II was examined with a kDNA decatenation assay (TopoGEN, Inc. Port Orange, Fla.). Substrate kDNA was mixed with compounds and incubated at 37° C. for 30 min. The reaction was stop by adding ⅕ volume of stop buffer. 20 μl of the reaction was loaded on 1% agarose gel. Image of decatenation of kDNA by compounds was taken by Kodak Image Station 440.
In the presence of topoisomerase II, decatenated nicked and circular kDNAs are located at the bottom of the gel. […] Table 9 indicates the ability of compounds of the invention to inhibit the activity of topoisomease II.

| SMILES | degradation of Her2 (Her2; 0.5 μM) | degradation of Her2 (Her2; 2 μM) | degradation of Her2 (Her2; 5 μM) | inhibition of ATPase activity of Hsp90 (Hsp90 protein; 4 μM) | inhibition of ATPase activity of Hsp90 (Hsp90 protein; 40 μM) | inhibition of the activity of human topo II (human topo II) | inhibition of the activity of topoisomerase II (topoisomerase II) |
| --- | --- | --- | --- | --- | --- | --- | --- |
| CCc1cc(-c2nnc(S)n2-c2cccc3ccccc23)c(O)cc1O [Compound 49, 3-(2,4-Dihydroxy-5-ethyl-phenyl)-4-(naphthalen-1-yl)-5-mercapto-triazole] | partial degradated | complete degradation | complete degradation | – | – | – | – |
| Oc1ccc(-c2nnc(S)n2-c2cccc3ccccc23)c(O)c1 [Compound 108, 3-(2,4-Dihydroxy-phenyl)-4-(naphthalen-1-yl)-5-mercapto-triazole] | partially degradated | partially degradated | almost completely degraded | significant inhibition | even greater inhibition of ATPase activity of Hsp90 than geldanamycin | – | – |
| C[C@@H]1C[C@H]2O[C@@H]2/C=C\C=C\C(=O)Cc2c(Cl)c(O)cc(O)c2C(=O)O1 [radicicol] | – | – | – | – | – | can inhibit the activity of human topo II | completely inhibits the activity of topoisomerase II |
